# Reference: ChEMBL document CHEMBL1201862, “PubChem BioAssay data set” (2004)
# Calls of active or inactive are those of the source.
# Key:
# [1] = target: T1, Lysosomal acid glucosylceramidase (Homo sapiens, UniProt P04062); assay: Dose response cell-based high throughput screening assay to identify enhancers of beta-glucosidase activity. [Related pubchem assays: 784 ]; format: functional
# T1 sequence (P04062 whole entry): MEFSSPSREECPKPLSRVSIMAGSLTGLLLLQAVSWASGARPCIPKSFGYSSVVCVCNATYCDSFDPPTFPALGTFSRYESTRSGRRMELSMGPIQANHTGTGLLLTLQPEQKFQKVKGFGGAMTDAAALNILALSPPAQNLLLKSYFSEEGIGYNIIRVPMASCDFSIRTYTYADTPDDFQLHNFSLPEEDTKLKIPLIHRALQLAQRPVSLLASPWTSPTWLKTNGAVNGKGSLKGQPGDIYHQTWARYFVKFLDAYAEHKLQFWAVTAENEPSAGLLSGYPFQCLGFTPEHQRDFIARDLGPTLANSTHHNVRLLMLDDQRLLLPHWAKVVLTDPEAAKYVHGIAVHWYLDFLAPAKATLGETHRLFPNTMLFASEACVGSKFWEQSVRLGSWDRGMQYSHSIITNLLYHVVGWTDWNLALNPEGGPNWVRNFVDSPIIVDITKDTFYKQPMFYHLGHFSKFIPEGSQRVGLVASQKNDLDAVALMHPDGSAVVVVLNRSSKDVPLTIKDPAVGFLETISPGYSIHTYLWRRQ
# [2] = target: T2, Oxysterols receptor LXR-beta (Homo sapiens, UniProt P55055); format: functional, cell-based;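 further: Cell-based luminescence dose-response assay of agonist activity at LXR, run as a confirmatory counterscreen to a daf-12 agonist screen; HEK293 cells with Gal4-LXR fusion and GAL4-driven luciferase reporter; agonist potency from rising luciferase signal of a Gal4-LXR reporter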
# T2 sequence (P55055 whole entry): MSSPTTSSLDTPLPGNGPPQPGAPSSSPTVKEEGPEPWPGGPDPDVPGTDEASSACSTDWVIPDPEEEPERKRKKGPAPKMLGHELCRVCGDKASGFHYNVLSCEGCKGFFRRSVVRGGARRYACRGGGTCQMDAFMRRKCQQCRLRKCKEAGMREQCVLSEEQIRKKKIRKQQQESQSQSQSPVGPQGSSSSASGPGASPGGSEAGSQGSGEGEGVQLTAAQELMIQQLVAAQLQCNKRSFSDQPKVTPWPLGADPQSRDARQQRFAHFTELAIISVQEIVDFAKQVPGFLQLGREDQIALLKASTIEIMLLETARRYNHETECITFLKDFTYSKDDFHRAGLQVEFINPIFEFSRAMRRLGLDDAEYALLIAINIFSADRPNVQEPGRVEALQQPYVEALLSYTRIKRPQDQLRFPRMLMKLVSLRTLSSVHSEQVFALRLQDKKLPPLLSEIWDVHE
# [3] = cells
# [4] = THP-1 cell cytotoxicity, dose response, cytotoxicity control for Vif-APOBEC3G degradation inhibitor project, THP-1 cells (AID 1117359); format: functional; settings: Human immunodeficiency virus 1, THP-1
# [5] = P. falciparum late gametocyte killing, dose response, luminescence (AID 1117278); format: functional, cell-based;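 further: gametocytes exposed to compound for 24 hours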
# [6] = Jurkat T cell cytotoxicity, dose response, cytotoxicity control for P. falciparum gametocyte viability project, luminescence (AID 1117277); format: functional, cell-based;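 further: potency reflects loss of cellular ATP meaning fewer viable cells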
# [7] = target: T3, Estrogen receptor (Homo sapiens, UniProt P03372);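 further: potency for inhibiting coactivator peptide recruitment to the receptor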
# T3 sequence (P03372 whole entry): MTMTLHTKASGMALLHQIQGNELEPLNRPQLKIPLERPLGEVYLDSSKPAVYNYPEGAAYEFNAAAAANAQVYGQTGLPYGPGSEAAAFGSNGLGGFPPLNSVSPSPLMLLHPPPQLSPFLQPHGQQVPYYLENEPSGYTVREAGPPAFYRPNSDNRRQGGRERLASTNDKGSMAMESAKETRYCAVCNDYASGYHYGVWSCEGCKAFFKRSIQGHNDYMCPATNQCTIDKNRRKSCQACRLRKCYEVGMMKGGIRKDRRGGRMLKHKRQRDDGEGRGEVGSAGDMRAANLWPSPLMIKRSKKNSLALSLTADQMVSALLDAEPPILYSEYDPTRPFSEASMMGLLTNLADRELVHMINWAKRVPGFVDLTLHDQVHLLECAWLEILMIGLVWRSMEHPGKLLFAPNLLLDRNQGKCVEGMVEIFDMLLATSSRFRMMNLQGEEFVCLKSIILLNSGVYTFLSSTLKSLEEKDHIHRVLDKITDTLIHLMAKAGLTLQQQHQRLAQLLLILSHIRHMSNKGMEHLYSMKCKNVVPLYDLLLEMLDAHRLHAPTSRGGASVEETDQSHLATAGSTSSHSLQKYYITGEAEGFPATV
# [8] = target: T4, Epstein-Barr nuclear antigen 1 (Epstein-Barr virus (strain B95-8) (HHV-4) (Human herpesvirus 4), UniProt P03211); assay: EBNA-1 inhibitors, dose response, biochemical, fluorescence polarization, 1536-well (AID 2381); set-up: species or system human gammaherpesvirus 4;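 further: fluorescence polarization of a Cy5 DNA probe bound by EBNA-1 protein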
# T4 sequence (P03211 whole entry): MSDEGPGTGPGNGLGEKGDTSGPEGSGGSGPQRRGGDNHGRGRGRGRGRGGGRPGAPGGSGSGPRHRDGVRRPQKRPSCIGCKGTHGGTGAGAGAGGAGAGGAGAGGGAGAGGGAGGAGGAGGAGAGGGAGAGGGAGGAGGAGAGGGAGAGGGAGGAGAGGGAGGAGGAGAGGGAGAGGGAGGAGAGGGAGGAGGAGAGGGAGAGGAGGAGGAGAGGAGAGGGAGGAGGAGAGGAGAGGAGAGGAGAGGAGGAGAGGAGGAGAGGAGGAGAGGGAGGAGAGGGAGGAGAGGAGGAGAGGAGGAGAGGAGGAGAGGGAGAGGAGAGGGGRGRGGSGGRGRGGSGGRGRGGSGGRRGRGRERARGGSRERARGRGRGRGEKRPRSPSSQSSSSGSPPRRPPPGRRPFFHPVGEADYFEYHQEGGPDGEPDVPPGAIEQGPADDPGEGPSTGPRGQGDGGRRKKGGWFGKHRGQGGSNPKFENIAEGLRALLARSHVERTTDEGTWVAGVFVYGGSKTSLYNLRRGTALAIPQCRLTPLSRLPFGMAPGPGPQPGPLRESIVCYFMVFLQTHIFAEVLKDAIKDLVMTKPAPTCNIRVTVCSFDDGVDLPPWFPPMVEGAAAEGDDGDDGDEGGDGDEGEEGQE
# [9] = target: T5, Lytic switch protein BZLF1 (Epstein-Barr virus (strain B95-8) (HHV-4) (Human herpesvirus 4), UniProt P03206); assay: EBV ZTA inhibitors, dose response, counter-screen for EBNA-1 inhibitor project, biochemical, fluorescence polarization, Epstein-Barr virus, 1536-well (AID 2377); set-up: species or system human gammaherpesvirus 4;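 further: fluorescence polarization of Cy5-labelled ZRE DNA probe bound by purified Zta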
# T5 sequence (P03206 whole entry): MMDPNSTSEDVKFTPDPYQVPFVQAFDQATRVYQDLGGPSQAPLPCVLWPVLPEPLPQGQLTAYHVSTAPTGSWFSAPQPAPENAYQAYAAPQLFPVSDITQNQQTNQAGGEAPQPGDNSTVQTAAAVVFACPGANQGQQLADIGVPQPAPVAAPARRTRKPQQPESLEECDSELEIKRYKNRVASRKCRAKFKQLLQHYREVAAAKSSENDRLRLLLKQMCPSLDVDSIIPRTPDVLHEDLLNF
# [10] = target: T6, Polyadenylate-binding protein 1 (Homo sapiens, UniProt P11940); assay: PABP1 MLLE–PAM2 interaction inhibitors, dose response, miRNA deadenylation inhibitor project, biochemical, fluorescence polarization, Cy5-PAM2 peptide, secondary (AID 602260); format: functional; settings: read-out: IC50_Mean
# T6 sequence (P11940 whole entry): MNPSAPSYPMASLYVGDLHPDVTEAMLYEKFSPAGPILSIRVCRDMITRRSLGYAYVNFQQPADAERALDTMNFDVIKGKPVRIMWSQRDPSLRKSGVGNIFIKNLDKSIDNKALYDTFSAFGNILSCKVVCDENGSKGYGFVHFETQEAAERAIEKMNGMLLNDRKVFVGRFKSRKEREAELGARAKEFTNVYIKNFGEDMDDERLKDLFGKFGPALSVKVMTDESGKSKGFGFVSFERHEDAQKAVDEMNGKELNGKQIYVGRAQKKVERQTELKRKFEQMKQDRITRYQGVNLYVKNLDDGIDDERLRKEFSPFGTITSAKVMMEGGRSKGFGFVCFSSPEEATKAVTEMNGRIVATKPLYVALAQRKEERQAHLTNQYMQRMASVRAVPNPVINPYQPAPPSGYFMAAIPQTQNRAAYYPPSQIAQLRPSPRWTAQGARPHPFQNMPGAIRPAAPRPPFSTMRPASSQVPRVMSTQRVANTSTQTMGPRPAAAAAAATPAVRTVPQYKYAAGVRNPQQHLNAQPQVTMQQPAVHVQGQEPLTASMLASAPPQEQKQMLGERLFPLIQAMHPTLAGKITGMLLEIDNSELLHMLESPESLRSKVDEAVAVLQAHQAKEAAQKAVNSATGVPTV
# [11] = target: T6, Polyadenylate-binding protein 1; assay: PABP1 MLLE–PAM2 binding inhibitor potency, dose response, biochemical, fluorescence polarization, FITC-PAM2 peptide (AID 602259); format: functional; settings: read-out: IC50_Mean
# [12] = cells; remark: listed apart in the source
# [13] = target: T7, Mannose-6-phosphate isomerase (Homo sapiens, UniProt P34949); assay: human PMI inhibitors, high substrate, primary screen, biochemical, fluorescence intensity, high mannose 6-phosphate (AID 1220)
# T7 sequence (P34949 whole entry): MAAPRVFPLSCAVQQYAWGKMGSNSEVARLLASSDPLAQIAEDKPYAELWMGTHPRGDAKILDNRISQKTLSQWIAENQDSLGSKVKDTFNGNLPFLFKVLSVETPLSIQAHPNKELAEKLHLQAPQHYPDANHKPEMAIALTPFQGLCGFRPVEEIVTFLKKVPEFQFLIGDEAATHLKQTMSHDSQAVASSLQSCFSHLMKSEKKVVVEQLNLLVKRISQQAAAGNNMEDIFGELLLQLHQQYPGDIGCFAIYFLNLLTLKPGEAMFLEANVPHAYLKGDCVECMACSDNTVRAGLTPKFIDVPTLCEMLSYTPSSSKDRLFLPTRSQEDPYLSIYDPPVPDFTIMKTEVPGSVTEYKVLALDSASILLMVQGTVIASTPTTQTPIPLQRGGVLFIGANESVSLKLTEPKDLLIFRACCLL
# [14] = HEp-2 cell cytotoxicity, dose response, cytotoxicity control for RSV inhibitor project, HTS (AID 2410); format: functional; settings: human respiratory syncytial virus
# [15] = target: T8, Caspase-6 (Homo sapiens, UniProt P55212); assay: human caspase-6 inhibitors, dose response, biochemical, VEID-R110 fluorescence, cherry-pick (AID 720632)
# T8 sequence (P55212 whole entry): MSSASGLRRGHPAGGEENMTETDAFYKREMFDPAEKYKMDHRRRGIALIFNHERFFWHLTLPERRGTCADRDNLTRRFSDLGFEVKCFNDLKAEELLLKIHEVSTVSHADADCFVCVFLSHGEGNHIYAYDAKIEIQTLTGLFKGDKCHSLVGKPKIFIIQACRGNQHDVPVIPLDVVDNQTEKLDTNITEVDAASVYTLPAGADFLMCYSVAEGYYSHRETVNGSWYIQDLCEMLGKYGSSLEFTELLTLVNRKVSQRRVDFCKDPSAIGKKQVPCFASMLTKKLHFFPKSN
# [16] = target: T9, Carboxy-terminal domain RNA polymerase II polypeptide A small phosphatase 1 (Homo sapiens, UniProt Q9GZU7); assay: inhibitors of CTDSP1, concentration-response testing, biochemical assay, absorbance-based, actives from ultra-high-throughput screening (AID 540297); format: functional
# T9 sequence (Q9GZU7 whole entry): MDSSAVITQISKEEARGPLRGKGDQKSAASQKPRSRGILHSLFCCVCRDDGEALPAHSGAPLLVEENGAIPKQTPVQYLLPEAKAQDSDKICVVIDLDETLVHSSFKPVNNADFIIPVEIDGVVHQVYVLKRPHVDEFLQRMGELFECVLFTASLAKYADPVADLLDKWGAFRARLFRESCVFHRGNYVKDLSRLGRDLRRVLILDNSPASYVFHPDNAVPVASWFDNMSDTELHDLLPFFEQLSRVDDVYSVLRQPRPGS
# [17] = target: Mitogen-activated protein kinase 10 (Homo sapiens, UniProt P53779); assay: Dose response biochemical screening assay for inhibitors of c-Jun N-Terminal Kinase 3 (JNK3). [Related pubchem assays: 746 ]
# Mitogen-activated protein kinase 10, sequence (P53779 whole entry): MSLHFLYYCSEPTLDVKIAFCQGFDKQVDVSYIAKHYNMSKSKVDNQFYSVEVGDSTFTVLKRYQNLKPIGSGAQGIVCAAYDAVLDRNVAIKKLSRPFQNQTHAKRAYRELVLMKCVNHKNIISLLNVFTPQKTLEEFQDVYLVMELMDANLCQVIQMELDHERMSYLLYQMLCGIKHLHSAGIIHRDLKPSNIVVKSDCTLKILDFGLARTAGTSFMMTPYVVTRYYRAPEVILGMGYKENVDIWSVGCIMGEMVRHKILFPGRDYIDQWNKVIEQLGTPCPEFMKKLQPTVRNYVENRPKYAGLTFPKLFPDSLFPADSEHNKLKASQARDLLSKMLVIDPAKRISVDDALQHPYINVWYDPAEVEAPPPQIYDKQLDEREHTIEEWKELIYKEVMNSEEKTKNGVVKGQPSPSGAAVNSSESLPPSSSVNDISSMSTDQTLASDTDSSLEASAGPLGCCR
structure (smiles),measurement,setting,value
Cc1ccccc1CS(=O)(=O)Cc1ccc(C(=O)NCc2ccco2)o1,EC50,[1],> 50 µM (not active)
O=C(NC(=S)Nc1ccc(Br)cn1)c1cccs1,EC50,[2],> 67.5 µM (inactive)
same,EC50,[3],> 67.5 µM (inactive)
CC(C)(C)C(=O)OCc1nc(-c2ccc(O)c(O)c2)cs1,CC50,[4],27.8 µM (active)
O=C(NCc1ccc(F)cc1)C(Cc1ccccc1)NS(=O)(=O)c1cccs1 (stereo not drawn),IC50,[5],> 109 µM (inactive)
same,IC50,[6],> 83.3 µM (inactive)
CC(=O)Nc1nc(C=C(Cl)Cl)cs1,IC50,[7],> 50 µM (not active)
CCOC(=O)c1ccc(-c2csc(NC(=O)CN3CCC(C)CC3)n2)cc1,IC50,[8],5.32 µM (active)
same,IC50,[9],> 111 µM (not active)
c1coc(-c2nn3c(Cn4nnc5ccccc54)nnc3s2)c1,IC50,[10],> 66 µM (inactive)
same,IC50,[11],> 66 µM (inactive)
same,IC50,[12],8.25 µM (active)
CCOC(=O)[C@H]1[C@H]2COc3ccc(Cl)cc3[C@@H]2N2C(=O)c3ccc(Cl)cc3NC(=O)[C@@]12C,IC50,[8],> 148 µM (not active)
same,IC50,[9],> 111 µM (not active)
O=[N+]([O-])c1c(NCCO)cc(N2CCC3(CC2)OCCO3)c2nonc12,IC50,[13],> 50 µM (not active)
Cc1ccc(-n2c(SCC(=O)NCc3ccco3)nc3c4ccccc4nc-3c2O)cc1,CC50,[4],> 40 µM (active)
Cc1cccc(Nc2nc(NCc3ccco3)nc(N3CCOCC3)n2)c1,CC50,[14],36.8 µM (active)
same,IC50,[5],> 109 µM (inactive)
same,IC50,[6],> 83.3 µM (inactive)
C(=C\c1ccc([C@H]2[C@H]3CNC[C@@H]2N3Cc2ccccn2)cc1)/c1ccccc1,AC50,[15],41.9 µM (active)
CN(C)c1cccc2c(C#N)ccc(N(C)C)c12,IC50,[13],> 50 µM (not active)
O=C(CCNS(=O)(=O)c1cccc2nsnc12)NC1CCN(Cc2ccccc2)CC1,EC50,[1],> 50 µM (not active)
CN(/N=C/c1cccnc1)c1cnn(-c2ccc(F)c(Cl)c2)c(=O)c1Cl,IC50,[7],17.9 µM (active)
same,IC50,[16],> 80 µM (inactive)
Cc1nnc(NS(=O)(=O)c2ccc(N=Nc3ccc(N)nc3N)cc2)s1,AC50,[15],3.23 µM (active)
CN(C)c1ccc(S(=O)(=O)N2CCCCC2)cc1NC(=O)COc1ccccc1F,IC50,[5],> 109 µM (inactive)
same,IC50,[6],> 83.3 µM (inactive)
O=c1c2sccc2n(Cc2cc(=O)n3ccccc3n2)c(=O)n1-c1ccccc1,IC50,[12],14 µM (active)
Nc1c(C(=O)Nc2ccccc2)sc2nc(-c3ccco3)ccc12,IC50,[8],6.43 µM (active)
same,IC50,[9],> 111 µM (not active)
CCN(CC)S(=O)(=O)c1ccc2nc(COC(=O)c3n[nH]c4ccccc34)[nH]c2c1,IC50,[17],0.401 µM (active)
COc1cc2c(cc1NC(=O)Nc1ccccc1)oc1ccccc12,CC50,[14],13.2 µM (active)
same,IC50,[12],30.4 µM (active)
